ChEMBL document CHEMBL1201862, “PubChem BioAssay data set” (2004)
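Where inhibition never reached the appropriate level, the endpoint shown equals the highest concentration tested. Otherwise, values were interpolated linearly from a five-concentration, 48-hour dose response in 96-well plates. Here, GI50 denotes the concentration required for 50% inhibition of growth.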 The source made the active and inactive calls. Rule as the data show it: active = GI50 up to about 1.1 µM and inactive = higher.

Experiments:
Test in all cases: inhibition of tumour cell growth, NCI panel, 48 h
[1] = system: HCC 2998
[2] = system: HCT-116
[3] = system: IGROV-1
[4] = system: KM12
[5] = system: M14
[6] = system: Malme-3M
[7] = system: NCI-H522
[8] = system: OVCAR-3
[9] = system: RPMI-8226
[10] = system: RXF 393
[11] = system: SF-295
[12] = system: SK-MEL-28
[13] = system: SK-OV-3
[14] = system: SNB-19
[15] = system: SNB-75
[16] = system: SW-620
[17] = system: U-251
[18] = system: UACC-257
[19] = system: UACC-62
[20] = system: UO-31

Measured: GI50

N#CC1(C#N)C(=O)c2ccncc2C1=O
inactive: [1] > 100 µM | [2] > 100 µM | [3] > 100 µM | [4] > 100 µM | [5] > 100 µM | [6] > 100 µM | [7] > 100 µM | [8] > 100 µM | [9] > 100 µM | [10] > 100 µM | [11] > 100 µM | [12] > 100 µM | [13] > 100 µM | [14] > 100 µM | [15] > 100 µM | [16] > 100 µM | [17] > 100 µM | [18] > 100 µM | [19] > 100 µM | [20] > 100 µM

C[C@]12CCC(=O)C(O)=C1CC[C@@H]1[C@@H]2CC[C@]2(C)C(=O)CC[C@@H]12 [FORMESTANE]
inactive: [1] > 100 µM | [2] > 93.1 µM | [3] > 100 µM | [4] > 74.3 µM | [5] > 100 µM | [6] > 100 µM | [7] > 100 µM | [8] > 100 µM | [9] > 100 µM | [10] > 100 µM | [11] > 100 µM | [12] > 100 µM | [13] > 100 µM | [14] > 100 µM | [15] > 100 µM | [16] > 100 µM | [17] > 100 µM | [18] > 100 µM | [19] > 100 µM | [20] > 90.2 µM
